Several values for one entry are separate records, joined by “and”; a condition that tells them apart may be missing. Equal values may be shown once.
Columns and labels:
Assay type in all cases: cell-based
[1] = Cytotoxicity assay (CellTiter-Glo, 72 h), MESO-1; settings: human, MESO-1 malignant pleural mesothelioma cells, raw replicate data, read-out: MESO1 viability (%)
Description: (§1) Jurkat cells were cultured in RPMI1640 medium supplemented with 10% foetal bovine serum, penicillin (50 U/ml), streptomycin (50 μg/ml), and Glutamax. SKOV-3 cells were cultured in DMEM medium supplemented with 10% fetal bovine serum, penicillin (50 U/ml), and streptomycin (50 μg/ml). MESO-1 cells were cultured in RPMI1640 medium supplemented with 10% fetal bovine serum, penicillin (50 U/ml), and streptomycin (50 μg/ml). All cell lines were seeded in a 384-well plate at a density of 1000 cells/well in 20 μl of media and incubated at 37 °C in a humidified incubator with 5% CO2. After 4 h, 2-fold dilution samples resolved in DMSO were added to the cell culture at the concentration of 0.5% (0.1 μl) and incubated for 72 h. Cell viabilities were measured using a CellTiter-Glo luminescent cell viability assay and EnVision multilabel plate reader.

[2] = tested on: malignant pleural mesothelioma MESO-1 cells; test: Cytotoxicity assay (CellTiter-Glo, 72 h), MESO-1; settings: raw replicate data
Description: as §1

FKBP12 and mTOR = target: T1, FKBP12 and mTOR (Homo sapiens, UniProt P42345+P62942); test: Fluoppi analysis: induction of FKBP12-mTOR complex formation in transfected HeLa cells; settings: raw data, one replicate per line
T1 construct: host or cells: HeLa cells
Description: Fluoppi harbours a tetrameric fluorescent protein hAG tag and an oligomeric assembly helper Ash tag to create detectable fluorescent foci in cells when there are interactions between two proteins fused to each tag[32].
HeLa cells were maintained in DMEM (Fujifilm Wako, Osaka, Japan) supplemented with 10% FBS (Thermo Fisher Scientific, MA, USA) and 1% of Penicillin-Streptomycin (Thermo Fisher Scientific) in a humidified incubator with 5% CO2 at 37 °C. Harvested cells were plated at 1 × 10^6 cells/well in 6-well plate and incubated for 6 h. Then each 1.25 µg of phAG-mTOR and pAsh-FKBP12 (Medical and Biological Laboratories Co., Ltd., Aichi, Japan) was co-transfected with Lipofectamine 2000 reagent (Thermo Fisher Scientific) overnight. Next day, transfected cells were harvested and seeded in 384-well optical-bottom microplate (PerkinElmer, MA, USA) at a density of 3000 cells/well. After the 24 h incubation at 37 °C, cells were treated with different concentrations of compounds for 1 h. Cells were then fixed with 4% paraformaldehyde and stained with 1 µg/ml of Hoechst33342 (Thermo Fisher Scientific). Cell images of 9 visual fields/well were acquired with ×20 objective lens in Opera Phenix High-Content Screening System (PerkinElmer) and analysed by Harmony4.9 software (PerkinElmer). Because protein-protein interactions are quantified by measuring the aggregation of fluorescent elements in foci, fluorescent intensity in foci was normalised by total fluorescent intensity in each cell. EC50 values were calculated using TIBCO Spotfire 10.3 software (PerkinElmer).

T1 sequence (P42345 2025-2114 limits assumed): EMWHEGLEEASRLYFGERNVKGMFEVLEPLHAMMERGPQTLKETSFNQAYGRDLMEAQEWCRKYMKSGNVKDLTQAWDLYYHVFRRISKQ
T1 sequence (P62942 whole entry): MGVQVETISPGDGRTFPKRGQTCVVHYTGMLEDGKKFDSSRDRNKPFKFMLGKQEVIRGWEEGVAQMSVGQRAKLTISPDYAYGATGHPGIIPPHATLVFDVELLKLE

CO[C@H]1C[C@@H]2CC[C@@H](C)[C@@](O)(O2)C(=O)C(=O)N2CCCC[C@H]2C(=O)O[C@H]([C@H](C)C[C@@H]2CC[C@@H](O)[C@H](OC)C2)CC(=O)[C@H](C)/C=C(\C)[C@@H](O)[C@@H](OC)C(=O)[C@H](C)C[C@H](C)/C=C/C=C/C=C/1C [Compound 1, rapamycin, reference compound]
viability at 72 h, 0.0488281 uM ([1]; conc 0.0488281 uM): 75%
viability at 72 h, 0.0976562 uM ([1]; conc 0.0976562 uM): 77%
viability at 72 h, 0.195312 uM ([1]; conc 0.195312 uM): 74.8%
viability at 72 h, 0.390625 uM ([1]; conc 0.390625 uM): 75.6%
viability at 72 h, 0.78125 uM ([1]; conc 0.78125 uM): 68.5%
viability at 72 h, 1.5625 uM ([1]; conc 1.5625 uM): 76.4%
viability at 72 h, 3.125 uM ([1]; conc 3.125 uM): 73.6%
viability at 72 h, 6.25 uM ([1]; conc 6.25 uM): 74.3%
viability at 72 h, 12.5 uM ([1]; conc 12.5 uM): 71.1%
viability at 72 h, 25 uM ([1]; conc 25 uM): 63.9%
viability at 72 h, 50 uM ([1]; conc 50 uM): 1.1%
MESO1 viability (%) ([2]; conc 9.53674e-5 uM): 78.2% and 78.1%
MESO1 viability (%) ([2]; conc 0.000190735 uM): 77.7% and 77.2%
MESO1 viability (%) ([2]; conc 0.00038147 uM): 77.9% and 86.0%
MESO1 viability (%) ([2]; conc 0.000762939 uM): 70.2% and 70.0%
MESO1 viability (%) ([2]; conc 0.00152588 uM): 112.8% and 111.2%
MESO1 viability (%) ([2]; conc 0.00305176 uM): 76.5%
MESO1 viability (%) ([2]; conc 0.00610352 uM): 75.4% and 78.7%
MESO1 viability (%) ([2]; conc 0.012207 uM): 72.8% and 76.2%
MESO1 viability (%) ([2]; conc 0.0244141 uM): 77.3%
MESO1 viability (%) ([2]; conc 0.0488281 uM): 71.0% and 73.9%
MESO1 viability (%) ([2]; conc 0.0976562 uM): 74.5% and 75.3%
MESO1 viability (%) ([2]; conc 0.195312 uM): 73.7% and 71.3%
MESO1 viability (%) ([2]; conc 0.390625 uM): 76.1%
MESO1 viability (%) ([2]; conc 0.78125 uM): 74.4% and 74.1%
MESO1 viability (%) ([2]; conc 1.5625 uM): 76.3%
MESO1 viability (%) ([2]; conc 3.125 uM): 70.7% and 70.8%
MESO1 viability (%) ([2]; conc 6.25 uM): 70.6% and 74.9%
MESO1 viability (%) ([2]; conc 12.5 uM): 61.9% and 67.0%
MESO1 viability (%) ([2]; conc 25 uM): 64.2% and 64.1%
MESO1 viability (%) ([2]; conc 50 uM): 0.7% and 0.8%
Foci intensity (FKBP12 and mTOR; conc 9.53674e-5 uM): 0.01161 and 0.0103 and 0.03088
Foci intensity (FKBP12 and mTOR; conc 0.000190735 uM): 0.00895 and 0.02271 and 0.02107
Foci intensity (FKBP12 and mTOR; conc 0.00038147 uM): 0.01544 and 0.008548 and 0.02969
Foci intensity (FKBP12 and mTOR; conc 0.000762939 uM): 0.009653 and 0.01526 and 0.05621
Foci intensity (FKBP12 and mTOR; conc 0.00152588 uM): 0.01804 and 0.005306 and 0.005698
Foci intensity (FKBP12 and mTOR; conc 0.00305176 uM): 0.0369 and 0.03402 and 0.3176
Foci intensity (FKBP12 and mTOR; conc 0.00610352 uM): 0.06499 and 0.06076 and 0.02459
Foci intensity (FKBP12 and mTOR; conc 0.012207 uM): 0.2364 and 0.2753 and 0.5339
Foci intensity (FKBP12 and mTOR; conc 0.0244141 uM): 0.345 and 0.3003 and 0.3827
Foci intensity (FKBP12 and mTOR; conc 0.0488281 uM): 0.3632 and 0.2888 and 0.4741
Foci intensity (FKBP12 and mTOR; conc 0.0976562 uM): 0.3612 and 0.3367 and 0.3536
Foci intensity (FKBP12 and mTOR; conc 0.195312 uM): 0.3566 and 0.4014 and 0.5261
Foci intensity (FKBP12 and mTOR; conc 0.390625 uM): 0.3241 and 0.3575 and 0.3236
Foci intensity (FKBP12 and mTOR; conc 0.78125 uM): 0.4221 and 0.4622 and 0.4598
Foci intensity (FKBP12 and mTOR; conc 1.5625 uM): 0.3074 and 0.3503 and 0.4064
Foci intensity (FKBP12 and mTOR; conc 3.125 uM): 0.4223 and 0.3831 and 0.4233
Foci intensity (FKBP12 and mTOR; conc 6.25 uM): 0.3328 and 0.3828 and 0.4116
Foci intensity (FKBP12 and mTOR; conc 12.5 uM): 0.2834 and 0.3194 and 0.3771
Foci intensity (FKBP12 and mTOR; conc 25 uM): 0.3113 and 0.345 and 0.3681
Foci intensity (FKBP12 and mTOR; conc 50 uM): 0.2989 and 0.4553 and 0.5427
